Tested on: Digitaria sanguinalis
Assay: Glasshouse post-emergence test, visual damage, Table B1-4
Assay type: in vivo
Settings: 14 days after application
Protocol: Seeds of a variety of test species are sown in standard soil in pots. For each treatment, three replicate pots containing 10-15 plants per one-inch pot were sprayed at the 2-3 leaf stage. Clethodim and Compound (Ic) were each applied at 15, 30, 60 and 120 g ai/ha. The test plants are then grown in a glasshouse under controlled conditions in a glasshouse (at 24/16° C., day/night; 14 hours light; 65% humidity) and watered twice daily. Plants were assessed for visual damage compared to the untreated control 14 days after application (0=0% damage; 100=100% damage).

[1] = biotype I1781L (heterozygous), 15 g/ha
[2] = biotype I1781L (heterozygous), 30 g/ha
[3] = biotype I1781L (heterozygous), 60 g/ha
[4] = biotype I1781L (heterozygous), 120 g/ha

Structure (SMILES) | visual damage [1] [%] | visual damage [2] [%] | visual damage [3] [%] | visual damage [4] [%] | visual damage (biotype Sensitive, 15 g/ha) [%] | visual damage (biotype Sensitive, 30 g/ha) [%] | visual damage (biotype Sensitive, 60 g/ha) [%] | visual damage (biotype Sensitive, 120 g/ha) [%]
CCSC(C)CC1CC(=O)C(/C(CC)=N/OC/C=C/Cl)=C(O)C1 (stereo not shown) [Clethodim, clethodim] | 20 | 20 | 53 | 67 | 87 | 90 | 100 | 100
CC#Cc1ccc(C2=C(OC(=O)OC)C3CCC(C3)C2=O)c(OC)c1 (stereo not shown) [Compound Ic] | 73 | 90 | 100 | 100 | 90 | 100 | 100 | 100

Reference: patent US20260215428A1, “WEED CONTROL METHOD” (SYNGENTA CROP PROTECTION AG, priority 2023, published 2026)
